The text below walks through data of patent US20250145594A1, “MODULATORS OF THE INTEGRATED STRESS PATHWAY” (Calico Life Sciences LLC, priority 2020, published 2025).

The EC50 is the concentration needed to bring the measured effect to its halfway point.

Molecules are shown by their SMILES.

The assay concerns ATF4 luciferase reporter in HEK293T cells. Description: ATF4-Luc assay (in vitro model of VWMD). The format is cell-based, human. The note with it: Homo sapiens, HEK-293T, 7 h, HEK293T cells carrying the ATF4 luciferase reporter, 1 μg/mL tunicamycin, One Glo luminescence. In outline:
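Tunicamycin (1 μg/mL) stress with co-added compound for 7 hours in HEK293T cells stably carrying an ATF4 5′-UTR–luciferase reporter. EC50 values come from the luminescent signal (One Glo).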
As to `O=C(NC12CC(c3ccc(-n4cnc(C(F)(F)F)c4)nc3)(C1)C2)[C@H]1C[C@@H](O)c2cc(Cl)ccc2O1` [Compound 559, (2R,4R)-6-chloro-4-hydroxy-N-(3-{6-[4-(trifluoromethyl)-1H-imidazol-1-yl]pyridin-3-yl}bicyclo[1.1.1]pentan-1-yl)-3,4-dihydro-2H-1-benzopyran-2-carboxamide], the EC50 is 10 to 50 nM.

On to `O=C(NC12CC(c3ccnc(-n4cc(C(F)(F)F)cn4)c3)(C1)C2)[C@H]1C[C@@H](O)c2cc(Cl)ccc2O1` [Compound 560, (2R,4R)-6-chloro-4-hydroxy-N-(3-{2-[4-(trifluoromethyl)-1H-pyrazol-1-yl]pyridin-4-yl}bicyclo[1.1.1]pentan-1-yl)-3,4-dihydro-2H-1-benzopyran-2-carboxamide], for which the EC50 was 10 to 50 nM.

Consider `O=C(NC12CC(c3ccnc(-n4cc(C(F)(F)F)cn4)c3)(C1)C2)[C@H]1C[C@@H](O)c2cc(Cl)c(F)cc2O1` [Compound 561, (2R,4R)-6-chloro-7-fluoro-4-hydroxy-N-(3-{2-[4-(trifluoromethyl)-1H-pyrazol-1-yl]pyridin-4-yl}bicyclo[1.1.1]pentan-1-yl)-3,4-dihydro-2H-1-benzopyran-2-carboxamide], for which the EC50 is < 10 nM.

As to `O=C(NC12CC(n3cc(-c4ccn(C(F)(F)F)n4)cn3)(C1)C2)[C@H]1C[C@@H](O)c2cc(Cl)c(F)cc2O1` [Compound 562, (2R,4R)-6-chloro-7-fluoro-4-hydroxy-N-{3-[1-(trifluoromethyl)-1H,1′H-[3,4‘-bipyrazol]-1’-yl]bicyclo[1.1.1]pentan-1-yl}-3,4-dihydro-2H-1-benzopyran-2-carboxamide], the EC50 is < 10 nM.

As to `O=C(NC12CC(n3cc(-c4cnn(CC(F)(F)F)c4)cn3)(C1)C2)[C@H]1C[C@@H](O)c2cc(Cl)ccc2O1` [Compound 563, (2R,4R)-6-chloro-4-hydroxy-N-{3-[1′-(2,2,2-trifluoroethyl)-1H,1′H-[4,4′-bipyrazol]-1-yl]bicyclo[1.1.1]pentan-1-yl}-3,4-dihydro-2H-1-benzopyran-2-carboxamide], the EC50 is < 10 nM.

Regarding `O=C(NC12CC(n3cc(-c4cnn(CC(F)(F)F)c4)cn3)(C1)C2)[C@H]1C[C@@H](O)c2cc(Cl)c(F)cc2O1` [Compound 564, (2R,4R)-6-chloro-7-fluoro-4-hydroxy-N-{3-[1′-(2,2,2-trifluoroethyl)-1H,1′H-[4,4′-bipyrazol]-1-yl]bicyclo[1.1.1]pentan-1-yl}-3,4-dihydro-2H-1-benzopyran-2-carboxamide], the EC50 was < 10 nM.

On to `O=C(NC12CC(n3cc(-c4cnn(CC(F)(F)F)c4)cn3)(C1)C2)[C@H]1C[C@@H](O)c2cc(Cl)c(Cl)cc2O1` [Compound 565, (2R,4R)-6,7-dichloro-4-hydroxy-N-{3-[1′-(2,2,2-trifluoroethyl)-1H,1′H-[4,4′-bipyrazol]-1-yl]bicyclo[1.1.1]pentan-1-yl}-3,4-dihydro-2H-1-benzopyran-2-carboxamide], for which the EC50 is < 10 nM.

For `O=C(NC12CC(n3cc(-c4ccc(OC(F)(F)F)cn4)cn3)(C1)C2)[C@H]1C[C@@H](O)c2cc(Cl)c(Cl)cc2O1` [Compound 566, (2R,4R)-6,7-dichloro-4-hydroxy-N-(3-{4-[5-(trifluoromethoxy)pyridin-2-yl]-1H-pyrazol-1-yl}bicyclo[1.1.1]pentan-1-yl)-3,4-dihydro-2H-1-benzopyran-2-carboxamide], the EC50 is < 10 nM.

In the case of `O=C(NC12CC(n3cc(-c4ccc(C(F)(F)F)cn4)cn3)(C1)C2)[C@H]1C[C@@H](O)c2cc(Cl)c(Cl)cc2O1` [Compound 567, (2R,4R)-6,7-dichloro-4-hydroxy-N-(3-{4-[5-(trifluoromethyl)pyridin-2-yl]-1H-pyrazol-1-yl}bicyclo[1.1.1]pentan-1-yl)-3,4-dihydro-2H-1-benzopyran-2-carboxamide], the EC50 is < 10 nM.

With `O=C(NC12CC(n3cc(-c4ccc(C(F)F)cn4)cn3)(C1)C2)[C@H]1C[C@@H](O)c2cc(Cl)ccc2O1` [Compound 568, (2R,4R)-6-chloro-N-(3-{4-[5-(difluoromethyl)pyridin-2-yl]-1H-pyrazol-1-yl}bicyclo[1.1.1]pentan-1-yl)-4-hydroxy-3,4-dihydro-2H-1-benzopyran-2-carboxamide], the concentration for a half-maximal effect (EC50) was < 10 nM.

Regarding `O=C(NC12CC(n3cc(-c4ccc(C(F)F)cn4)cn3)(C1)C2)[C@H]1C[C@@H](O)c2cc(Cl)c(F)cc2O1` [Compound 569, (2R,4R)-6-chloro-N-(3-{4-[5-(difluoromethyl)pyridin-2-yl]-1H-pyrazol-1-yl}bicyclo[1.1.1]pentan-1-yl)-7-fluoro-4-hydroxy-3,4-dihydro-2H-1-benzopyran-2-carboxamide], the EC50 is < 10 nM.

As for `O=C(NC12CC(n3cc(-c4ccc(C5CC5)cn4)cn3)(C1)C2)[C@H]1C[C@@H](O)c2cc(Cl)ccc2O1` [Compound 570, (2R,4R)-6-chloro-N-{3-[4-(5-cyclopropylpyridin-2-yl)-1H-pyrazol-1-yl]bicyclo[1.1.1]pentan-1-yl}-4-hydroxy-3,4-dihydro-2H-1-benzopyran-2-carboxamide], the EC50 was < 10 nM.

Turning to `O=C(NC12CC(n3cc(-c4ccc(C5CC5)cn4)cn3)(C1)C2)[C@H]1C[C@@H](O)c2cc(Cl)c(F)cc2O1` [Compound 571, (2R,4R)-6-chloro-N-{3-[4-(5-cyclopropylpyridin-2-yl)-1H-pyrazol-1-yl]bicyclo[1.1.1]pentan-1-yl}-7-fluoro-4-hydroxy-3,4-dihydro-2H-1-benzopyran-2-carboxamide], the EC50 is < 10 nM.

As to `O=C(NC12CC(n3cc(-c4ccc(C(F)(F)F)cn4)cn3)(C1)C2)[C@H]1CNc2cc(Cl)ccc2O1` [Compound 572, (2R)-6-chloro-N-(3-{4-[5-(trifluoromethyl)pyridin-2-yl]-1H-pyrazol-1-yl}bicyclo[1.1.1]pentan-1-yl)-3,4-dihydro-2H-1,4-benzoxazine-2-carboxamide], the EC50 was < 10 nM.

Turning to `O=C(NC12CC(n3cc(-c4ccc(C(F)(F)F)cn4)cn3)(C1)C2)[C@@H]1CNc2cc(Cl)ccc2O1` [Compound 573, (2S)-6-chloro-N-(3-{4-[5-(trifluoromethyl)pyridin-2-yl]-1H-pyrazol-1-yl}bicyclo[1.1.1]pentan-1-yl)-3,4-dihydro-2H-1,4-benzoxazine-2-carboxamide], the EC50 lay within 10 to 50 nM.

With `O=C(NC12CC(n3cc(-c4ccc(C(F)(F)F)cn4)cn3)(C1)C2)C1CNc2cc(Cl)c(F)cc2O1` (stereo not drawn) [Compound 574, 6-chloro-7-fluoro-N-(3-{4-[5-(trifluoromethyl)pyridin-2-yl]-1H-pyrazol-1-yl}bicyclo[1.1.1]pentan-1-yl)-3,4-dihydro-2H-1,4-benzoxazine-2-carboxamide], the EC50 is < 10 nM.

On to `O=C(NC12CC(n3cc(-c4ccc(OC(F)F)cn4)cn3)(C1)C2)[C@H]1C[C@@H](O)c2cc(Cl)ccc2O1` [Compound 575, (2R,4R)-6-chloro-N-(3-{4-[5-(difluoromethoxy)pyridin-2-yl]-1H-pyrazol-1-yl}bicyclo[1.1.1]pentan-1-yl)-4-hydroxy-3,4-dihydro-2H-1-benzopyran-2-carboxamide], for which the EC50 is < 10 nM.

For `O=C(NC12CC(n3cc(-c4ccc(OC(F)F)cn4)cn3)(C1)C2)[C@H]1C[C@@H](O)c2cc(Cl)c(F)cc2O1` [Compound 576, (2R,4R)-6-chloro-N-(3-{4-[5-(difluoromethoxy)pyridin-2-yl]-1H-pyrazol-1-yl}bicyclo[1.1.1]pentan-1-yl)-7-fluoro-4-hydroxy-3,4-dihydro-2H-1-benzopyran-2-carboxamide], the EC50 was < 10 nM.

In the case of `O=C(N[C@H]1CC[C@H](n2cc(-c3ccc(C(F)(F)F)cn3)cn2)CC1)[C@H]1C[C@@H](O)c2cc(Cl)ccc2O1` [Compound 577, (2R,4R)-6-chloro-4-hydroxy-N-[(1r,4R)-4-{4-[5-(trifluoromethyl)pyridin-2-yl]-1H-pyrazol-1-yl}cyclohexyl]-3,4-dihydro-2H-1-benzopyran-2-carboxamide], the EC50 is < 10 nM.

Regarding `O=C(N[C@H]1CC[C@H](n2cc(-c3ccc(C(F)(F)F)cn3)cn2)CC1)[C@H]1C[C@@H](O)c2cc(Cl)c(F)cc2O1` [Compound 578, (2R,4R)-6-chloro-7-fluoro-4-hydroxy-N-[(1r,4R)-4-{4-[5-(trifluoromethyl)pyridin-2-yl]-1H-pyrazol-1-yl}cyclohexyl]-3,4-dihydro-2H-1-benzopyran-2-carboxamide], the EC50 is < 10 nM.

Turning to `O=C(NC12CC(n3cc(N4CC[C@@H](OC(F)(F)F)C4)cn3)(C1)C2)[C@H]1C[C@@H](O)c2cc(C(F)(F)F)ccc2O1` [Compound 579, (2R,4R)-4-hydroxy-N-(3-{4-[(3R)-3-(trifluoromethoxy)pyrrolidin-1-yl]-1H-pyrazol-1-yl}bicyclo[1.1.1]pentan-1-yl)-6-(trifluoromethyl)-3,4-dihydro-2H-1-benzopyran-2-carboxamide], the EC50 was < 10 nM.

Regarding `O=C(NC12CC(n3cc(C4CCN(CC(F)(F)F)CC4)cn3)(C1)C2)[C@H]1C[C@@H](O)c2cc(Cl)ccc2O1` [Compound 580, (2R,4R)-6-chloro-4-hydroxy-N-(3-{4-[1-(2,2,2-trifluoroethyl)piperidin-4-yl]-1H-pyrazol-1-yl}bicyclo[1.1.1]pentan-1-yl)-3,4-dihydro-2H-1-benzopyran-2-carboxamide], the EC50 was < 10 nM.

Regarding `O=C(N[C@H]1CC[C@H](n2cc(N3CC[C@@H](OC(F)(F)F)C3)cn2)CC1)[C@H]1C[C@@H](O)c2cc(Cl)ccc2O1` [Compound 581, (2R,4R)-6-chloro-4-hydroxy-N-[(1R,4R)-4-{4-[(3R)-3-(trifluoromethoxy)pyrrolidin-1-yl]-1H-pyrazol-1-yl}cyclohexyl]-3,4-dihydro-2H-1-benzopyran-2-carboxamide], the EC50 fell in the range of 10 to 50 nM.

Take `O=C(N[C@H]1CC[C@H](n2cc(N3CC[C@@H](OC(F)(F)F)C3)cn2)CC1)[C@H]1C[C@@H](O)c2cc(Cl)c(F)cc2O1` [Compound 582, (2R,4R)-6-chloro-7-fluoro-4-hydroxy-N-[(1R,4R)-4-{4-[(3R)-3-(trifluoromethoxy)pyrrolidin-1-yl]-1H-pyrazol-1-yl}cyclohexyl]-3,4-dihydro-2H-1-benzopyran-2-carboxamide]: the EC50 lay in the range of 10 to 50 nM.
